Measurements published in US9969744B2, “Compounds for use in cognition improvement” (FUNDACIÓN PARA LA INVESTIGACIÓN MÉDICA APLICADA, priority 2014, dated 2018).

Legend:
[1] = tested on: acetylated histone 3 at Lys9 (AcH3K9); test: HDAC activity using SHSY-5Y cell line (Western blot, histone 3 acetylation); assay type: cell-based, human; conditions: SHSY-5Y cells, 24 hours
Method: HDAC inhibition leads to the corresponding functional response, increase in AcH3 level. Therefore, the cellular assay to conclude HDAC activity was assessed by Western blot analysis using specific antibodies against acetylated histone 3 at Lys9 (AcH3K9). Cell cultures were treated at 100 nM, 500 nM, 1 μM and/or 5 μM with compounds of the invention or known PDE inhibitors during 24 hours and, Table 1 (below) describes the functional activity: histone 3 acetylation level (AcH3) vs basal (no treatment).
A human neuroblastoma cell line (SHSY-5Y) was used. Cell line was obtained from ATCC (CRL-2266) and cultured in 35 mm plates (Becton Dickinson, NJ).
The cells were grown to 90% confluence at 37° C. in an atmosphere of 5% CO2 and in Dulbecco's modified Eagle's medium supplemented with Glutamax (Gibco, Invitrogen, CA), 100 units/ml penicillin/streptomycin, 1×MEM nonessential amino acids and 10% fetal bovine serum (Gibco, Invitrogen, CA).
Cells were collected and sonicated in a buffer containing a cold lysis buffer with protease inhibitors (0.2 M NaCl, 0.1 M HEPES (4-(2-hydroxyethyl)-1-piperazineethanesulfonic acid), 10% glycerol, 200 mM NaF, 2 mM Na4P2O7, 5 mM EDTA (ethylenediaminetetraacetic acid), 1 mM EGTA (ethylene glycol tetraacetic acid), 2 mM DTT (dithiothreitol), 0.5 mM PMSF (phenylmethylsulfonyl fluoride), 1 mM Na3VO4 and Complete Protease Inhibitor Cocktail, Roche Diagnostics), centrifuged at 14,000×g 4° C. for 20 min and the supernatant was aliquoted and stored at −80° C. Total protein concentrations were determined using the BioRad Bradford protein assay (BioRad Laboratories).
Protein samples were mixed with Laemmli sample buffer, resolved onto Sodium Dodecyl Sulfate (SDS)-polyacrylamide gels and transferred to nitrocellulose membrane. The membranes were blocked with 5% milk, 0.05% Tween-20 in PBS (Phosphate-Buffered Saline) or TBS (Tris-Buffered Saline) followed by overnight incubation with the following primary antibodies: rabbit polyclonal anti-acetylated Histone 3 (acetyl K9) (Cell Signalling Technology), rabbit polyclonal anti-total Histone 3 (Millipore), in the corresponding buffer. All the antibodies were used at 1:1000 dilution except the mouse monoclonal anti-β-actin which was used at 1:50.000. Following two washes in TBS/Tween20 and one wash in TBS alone, immunolabeled protein bands were detected by using HRP-conjugated anti-rabbit or anti-mouse antibody (Santa Cruz Biotechnology; dilution 1:5.000) following an enhanced chemiluminescence system (ECL, GE Healthcare Bioscience, Buckinghamshire, UK), and autoradiographic exposure to HyperfilmtECL (GE Healthcare Bioscience). Quantity One™ software v.4.6.3 (Bio-Rad) was used for quantification.

PDE5A1 = biological target: T1, PDE5A1 (Homo sapiens, UniProt O76074); test: PDE enzyme activity assay (HTRF cGMP), PDE5A; assay type: biochemical; conditions: recombinant enzyme; read-out: PDE5A1 inhibition (IC50)
T1 construct: they are full-length with N-terminal GST tag; GST (N); purchased BPS Biosciences 60050; host or cells: baculovirus infected Sf9 cells

[2] = tested on: phosphorylated tau (p-Tau); test: AD-related markers in Tg2576 neurons: pTau; assay type: cell-based, mouse; conditions: Tg2576 primary neurons, compound concentration 50 nM
Method: The effects of the compounds on amyloid pathology were analysed in primary cultures after 21 days in-vitro (DIV) of neurons derived from the hippocampus and cortex of Tg2576 mouse embryos. Tg2576 mice express the human 695-aa isoform of APP (hAPP) containing the Swedish double mutation, which favours A3 production. Neurons were treated for two days and collected at day 3, 24 h after the last treatment. First it was analysed the effect of the compounds on hAPP processing by the amyloidogenic pathway by measuring the carboxyl terminal fragment AβPP (C99), which is the precursor of Aβ42. […]
It was next analyzed the effect of the compounds on levels of phosphorylated tau (p-Tau) in the same samples, another marker of AD, using a phospho-specific antibody (AT8) that recognizes hyperphosphorylated epitopes on Ser202/Thr205. […]
To analyze APP-derived fragments and p-Tau levels in primary neuronal cultures, cells were collected in a buffer containing SDS (2%), Tris-HCl (10 mM, pH 7.4), protease inhibitors (1 mM phenylmethylsulfonyl fluoride (PMSF) and Complete Protease Inhibitor Cocktail: Roche Diagnostics) and phosphatase inhibitors (0.1 mM Na3VO4 and 1 mM NaF). […] Aliquots of the supernatant were frozen at […] and their protein concentrations determined by the Bradford method using the Bio-Rad protein assay (Bio-Rad, Hercules, Calif., USA). […]

SMILES: CCCc1nn(C)c2c(=O)[nH]c(-c3cc(Cc4ccc(C(=O)Nc5ccccc5N)cc4)ccc3OCC)nc12 [Example 1-11, N-(2-aminophenyl)-4-[[4-ethoxy-3-(1-methyl-7-oxo-3-propyl-6H-pyrazolo[4,3-d]pyrimidin-5-yl)phenyl]methyl]benzamide]
- AcH3: increment in Histone 3 acetylation level vs basal ([1]; compound concentration 100 nM): ++ (basal x1.4≤(++)<basal x2)
- AcH3: increment in Histone 3 acetylation level vs basal ([1]; compound concentration 500 nM): ++ (basal x1.4≤(++)<basal x2)
- AcH3: increment in Histone 3 acetylation level vs basal ([1]; compound concentration 1 μM): +++ (basal x2≤(+++)<basal x3)
- IC50 (PDE5A1): 10 to 1000 nM
- decrease in pTau levels over basal [2]: ++ (basal x0.2≤(++)<basal x0.4 (reduction between 20% and 40%))
